Measured values from US20260078130A1, “NAMPT MODULATORS, PREPARATIONS, AND USES THEREOF” (SIRONAX LTD., priority 2022, published 2026).
Like-named read-outs stand apart in the source and are kept apart here.

Key:
[1] = system: endogenous NAMPT in U2OS cells; assay: Cellular NAD+ modulation assay (NAD/NADH-Glo, U2OS cells); format: cell-based; conditions: Homo sapiens; for maximal fold induction: read-out: Cellular Emax
In short: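 Endogenous NAMPT stimulation in U2OS cells treated with compound dilution series for 24 h at 37 °C. Cells lysed with DTAB base, acid-treated 15 min at 60 °C, neutralized, NAD+ read by NAD/NADH-Glo luminescence after 40 min at room temperature. EC50 and Emax (fold over DMSO) derived.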

[2] = target: T1, human enzyme NAMPT (full length) (Homo sapiens, UniProt P43490); assay: NMN fluorescence biochemical assay (stimulation of NMN synthesis by NAMPT); conditions: for EC50: concentration giving half-maximal activation, read-out: Enzymatic EC50; for Enzymatic Emax: fold change of maximal activation compared to DMSO
T1 construct: human enzyme NAMPT (full length)
In short: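 Full-length human NAMPT (100 nM) was preincubated 15 min at 37 °C with compound in 50 mM Tris-HCl pH 7.5, 10 mM MgCl2, 2 mM DTT, then reacted 1 h at 37 °C with 50 μM NAM, 100 μM PRPP, 4 mM ATP (stated solution concentrations). NMN was derivatised with acetophenone/KOH then formic acid and read at Ex/Em 382/445 nm; EC50 and Emax (fold over DMSO) reported.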

[3] = 24 hours incubation with compound
[4] = 24 hours incubation, cellular NAD+
[5] = NMN fluorescence assay, purified human NAMPT 100 nM

T1 sequence (P43490 whole entry): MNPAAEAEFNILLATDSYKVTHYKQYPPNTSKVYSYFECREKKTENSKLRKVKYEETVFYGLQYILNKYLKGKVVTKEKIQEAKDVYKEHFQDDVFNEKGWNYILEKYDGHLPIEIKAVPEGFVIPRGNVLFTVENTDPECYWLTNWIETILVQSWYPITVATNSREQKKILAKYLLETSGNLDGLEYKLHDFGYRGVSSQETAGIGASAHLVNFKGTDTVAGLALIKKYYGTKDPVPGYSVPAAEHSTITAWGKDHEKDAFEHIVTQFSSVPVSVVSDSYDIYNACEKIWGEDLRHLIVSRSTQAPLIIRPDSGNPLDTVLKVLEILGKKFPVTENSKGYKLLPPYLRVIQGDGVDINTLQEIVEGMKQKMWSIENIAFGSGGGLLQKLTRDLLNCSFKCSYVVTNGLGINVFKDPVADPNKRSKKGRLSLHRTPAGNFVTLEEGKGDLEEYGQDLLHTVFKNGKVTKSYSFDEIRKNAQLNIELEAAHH

`O=C1c2ccccc2C(Cc2nn(C3COC3)cc2Cl)N1Cc1ccc2[nH]nnc2c1` (stereo not drawn) [Compound 318, 2-((1H-benzo[d][1,2,3]triazol-5-yl)methyl)-3-((4-chloro-1-(oxetan-3-yl)-1H-pyrazol-3-yl)methyl)isoindolin-1-one] gave an EC50 [1, 3] of less than 500 nM, a maximal fold induction [1, 3] greater than 1.5 and an EC50 ([2]; NMN synthesis by purified human NAMPT (100 nM)) of less than 500 nM. The “Enzymatic Emax” value [2] was “A (A>3)”.

With `O=C1c2ccccc2C(Cc2ncccc2Br)N1Cc1ccc(=O)[nH]c1` (stereo not drawn) [Compound 322, 3-((3-bromopyridin-2-yl)methyl)-2-((6-oxo-1,6-dihydropyridin-3-yl)methyl)isoindolin-1-one] the EC50 [1, 4] was 500 to 5000 nM, the maximal fold induction [1, 4] was greater than 1.5 and the EC50 [2, 5] was 500 to 5000 nM. For the same compound, the “Enzymatic Emax” value [2] was “A (A>3)”.

With `Cn1ncc(Cl)c1CC1c2cc(N3CCOCC3)ccc2C(=O)N1Cc1ccc2[nH]nnc2c1` (stereo not drawn) [Compound 324, 2-((1H-benzo[d][1,2,3]triazol-5-yl)methyl)-3-((4-chloro-1-methyl-1H-pyrazol-5-yl)methyl)-5-morpholinoisoindolin-1-one] the EC50 [1, 4] was less than 500 nM, the maximal fold induction [1, 4] was greater than 1.5 and the EC50 [2, 5] was less than 500 nM. The “Enzymatic Emax” value [2] was “A (A>3)”.

`Cn1ncc(Cl)c1CC1c2cc(CN3CCOCC3)ccc2C(=O)N1Cc1ccc2[nH]nnc2c1` (stereo not drawn) [Compound 325, 2-((1H-benzo[d][1,2,3]triazol-5-yl)methyl)-3-((4-chloro-1-methyl-1H-pyrazol-5-yl)methyl)-5-(morpholinomethyl)isoindolin-1-one] gave an EC50 [1, 4] of less than 500 nM, a maximal fold induction [1, 4] greater than 1.5 and an EC50 [2, 5] of less than 500 nM. The “Enzymatic Emax” value [2] was “A (A>3)”.

`Cn1ncc(Cl)c1CC1c2cc(Br)ccc2C(=O)N1Cc1ccc2[nH]nnc2c1` (stereo not drawn) [Compound 326, 2-((1H-benzo[d][1,2,3]triazol-5-yl)methyl)-5-bromo-3-((4-chloro-1-methyl-1H-pyrazol-5-yl)methyl)isoindolin-1-one] gave an EC50 [1, 4] of less than 500 nM, a maximal fold induction [1, 4] greater than 1.5 and an EC50 [2, 5] of less than 500 nM. The “Enzymatic Emax” value [2] was “A (A>3)”.

Work on `Cn1ncc(Cl)c1CC1c2cc(C#N)ccc2C(=O)N1Cc1ccc2[nH]nnc2c1` (stereo not drawn) [Compound 327, 2-((1H-benzo[d][1,2,3]triazol-5-yl)methyl)-3-((4-chloro-1-methyl-1H-pyrazol-5-yl)methyl)-1-oxoisoindoline-5-carbonitrile] yielded an EC50 [1, 4] of less than 500 nM, a maximal fold induction [1, 4] of 1.2 to 1.5 and an EC50 [2, 5] of 500 to 5000 nM. The “Enzymatic Emax” value [2] was “A (A>3)”.

`O=C1c2ccccc2C(Cc2ncccc2Br)N1C/C=C/c1c[nH]nn1` (stereo not drawn) [Compound 328, (E)-2-(3-(1H-1,2,3-triazol-4-yl)allyl)-3-((3-bromopyridin-2-yl)methyl)isoindolin-1-one] gave an EC50 [1, 4] of less than 500 nM, a maximal fold induction [1, 4] greater than 1.5 and an EC50 [2, 5] of less than 500 nM. For the same compound, the “Enzymatic Emax” value [2] was “B (3≥B>2)”.

`O=C1c2ccccc2C(Cc2ncccc2Br)N1Cc1cc(F)c2[nH]nnc2c1` (stereo not drawn) [Compound 329, 3-((3-bromopyridin-2-yl)methyl)-2-((7-fluoro-1H-benzo[d][1,2,3]triazol-5-yl)methyl) isoindolin-1-one] was tested, and the EC50 [1, 4] was 5000 to 50000 nM, the maximal fold induction [1, 4] was greater than 1.5 and the EC50 [2, 5] was less than 500 nM. For the same compound, the “Enzymatic Emax” value [2] was “B (3≥B>2)”.

Work on `O=C1c2ccccc2C(Cc2ncccc2Br)N1Cc1ccc2[nH]nnc2c1F` (stereo not drawn) [Compound 330, 3-((3-bromopyridin-2-yl)methyl)-2-((4-fluoro-1H-benzo[d][1,2,3]triazol-5-yl)methyl)isoindolin-1-one] yielded an EC50 [1, 4] of 500 to 5000 nM, a maximal fold induction [1, 4] greater than 1.5 and an EC50 [2, 5] of less than 500 nM. The “Enzymatic Emax” value [2] was “A (A>3)”.

For `O=C1c2ccccc2C(Cc2ncccc2Br)N1Cc1ccc2[nH]nnc2c1` (stereo not drawn) [Compound 331, 2-((1H-benzo[d][1,2,3]triazol-5-yl)methyl)-3-((3-bromopyridin-2-yl)methyl)isoindolin-1-one], the EC50 [1, 4] was less than 500 nM, the maximal fold induction [1, 4] was greater than 1.5 and the EC50 [2, 5] was less than 500 nM. For the same compound, the “Enzymatic Emax” value [2] was “A (A>3)”.

Compound `O=C1c2ccccc2C(Cc2ncccc2Br)N1CC1CCc2[nH]nnc2C1` (stereo not drawn) [Compound 332, 3-((3-bromopyridin-2-yl)methyl)-2-((4,5,6,7-tetrahydro-1H-benzo[d][1,2,3]triazol-5-yl)methyl)isoindolin-1-one] has an EC50 [1, 4] of less than 500 nM, a maximal fold induction [1, 4] greater than 1.5 and an EC50 [2, 5] of 500 to 5000 nM. For the same compound, the “Enzymatic Emax” value [2] was “A (A>3)”.

`Cn1nnc(Cl)c1CC1c2ccccc2C(=O)N1Cc1ccc2[nH]nnc2c1` (stereo not drawn) [Compound 334, 2-((1H-benzo[d][1,2,3]triazol-5-yl)methyl)-3-((4-chloro-1-methyl-1H-1,2,3-triazol-5-yl)methyl)isoindolin-1-one] showed an EC50 [1, 4] of less than 500 nM, a maximal fold induction [1, 4] greater than 1.5 and an EC50 [2, 5] of 500 to 5000 nM. The “Enzymatic Emax” value [2] was “A (A>3)”.

`Cn1nc(Cl)c(CC2c3ccccc3C(=O)N2Cc2ccc3[nH]nnc3c2)n1` (stereo not drawn) [Compound 335, 2-((1H-benzo[d][1,2,3]triazol-5-yl)methyl)-3-((5-chloro-2-methyl-2H-1,2,3-triazol-4-yl)methyl)isoindolin-1-one] was tested, and the EC50 [1, 4] was less than 500 nM, the maximal fold induction [1, 4] was greater than 1.5 and the EC50 [2, 5] was 500 to 5000 nM. The “Enzymatic Emax” value [2] was “A (A>3)”.

`Cn1ncc(Cl)c1CC1c2cccc(Cl)c2C(=O)N1Cc1ccc2[nH]nnc2c1` (stereo not drawn) [Compound 336, 2-((1H-benzo[d][1,2,3]triazol-5-yl)methyl)-7-chloro-3-((4-chloro-1-methyl-1H-pyrazol-5-yl)methyl)isoindolin-1-one] was tested, and the EC50 [1, 4] was less than 500 nM, the maximal fold induction [1, 4] was greater than 1.5 and the EC50 [2, 5] was less than 500 nM. The “Enzymatic Emax” value [2] was “A (A>3)”.

`Cc1nn(C)c(CC2c3ccccc3C(=O)N2Cc2ccc3[nH]nnc3c2)c1Cl` (stereo not drawn) [Compound 337, 2-((1H-benzo[d][1,2,3]triazol-5-yl)methyl)-3-((4-chloro-1,3-dimethyl-1H-pyrazol-5-yl)methyl)isoindolin-1-one] was tested, and the EC50 [1, 4] was less than 500 nM, the maximal fold induction [1, 4] was greater than 1.5 and the EC50 [2, 5] was less than 500 nM. For the same compound, the “Enzymatic Emax” value [2] was “A (A>3)”.

With `Cn1ncc(Cl)c1CC1c2c(F)cccc2C(=O)N1Cc1ccc2[nH]nnc2c1` (stereo not drawn) [Compound 338, 2-((1H-benzo[d][1,2,3]triazol-5-yl)methyl)-3-((4-chloro-1-methyl-1H-pyrazol-5-yl)methyl)-4-fluoroisoindolin-1-one] the EC50 [1, 4] was less than 500 nM, the maximal fold induction [1, 4] was greater than 1.5 and the EC50 [2, 5] was less than 500 nM. The “Enzymatic Emax” value [2] was “A (A>3)”.

`Cn1ncc(Cl)c1CC1c2c(Cl)cccc2C(=O)N1Cc1ccc2[nH]nnc2c1` (stereo not drawn) [Compound 339, 2-((1H-benzo[d][1,2,3]triazol-5-yl)methyl)-4-chloro-3-((4-chloro-1-methyl-1H-pyrazol-5-yl)methyl)isoindolin-1-one] gave an EC50 [1, 4] of 500 to 5000 nM, a maximal fold induction [1, 4] greater than 1.5 and an EC50 [2, 5] of 500 to 5000 nM. For the same compound, the “Enzymatic Emax” value [2] was “A (A>3)”.

In the case of `Cn1ncc(Cl)c1CC1c2ccc(F)cc2C(=O)N1Cc1ccc2[nH]nnc2c1` (stereo not drawn) [Compound 340, 2-((1H-benzo[d][1,2,3]triazol-5-yl)methyl)-3-((4-chloro-1-methyl-1H-pyrazol-5-yl)methyl)-6-fluoroisoindolin-1-one], the EC50 [1, 4] is reported as less than 500 nM, the maximal fold induction [1, 4] is reported as greater than 1.5 and the EC50 [2, 5] is reported as less than 500 nM. The “Enzymatic Emax” value [2] was “A (A>3)”.

With `Cc1nn(C)c(C#N)c1CC1c2ccccc2C(=O)N1Cc1ccc2[nH]nnc2c1` (stereo not drawn) [Compound 341, 4-((2-((1H-benzo[d][1,2,3]triazol-5-yl)methyl)-3-oxoisoindolin-1-yl)methyl)-1,3-dimethyl-1H-pyrazole-5-carbonitrile] the EC50 [1, 4] was less than 500 nM, the maximal fold induction [1, 4] was greater than 1.5 and the EC50 [2, 5] was less than 500 nM. For the same compound, the “Enzymatic Emax” value [2] was “A (A>3)”.

Work on `Cn1ncc(Cl)c1CC1c2cccc(F)c2C(=O)N1Cc1ccc2[nH]nnc2c1` (stereo not drawn) [Compound 342, 2-((1H-benzo[d][1,2,3]triazol-5-yl)methyl)-3-((4-chloro-1-methyl-1H-pyrazol-5-yl)methyl)-7-fluoroisoindolin-1-one] yielded an EC50 [1, 4] of less than 500 nM, a maximal fold induction [1, 4] greater than 1.5 and an EC50 [2, 5] of less than 500 nM. The “Enzymatic Emax” value [2] was “A (A>3)”.

Work on `Cn1ncc(Cl)c1CC1c2ccc(Cl)cc2C(=O)N1Cc1ccc2[nH]nnc2c1` (stereo not drawn) [Compound 343, 2-((1H-benzo[d][1,2,3]triazol-5-yl)methyl)-6-chloro-3-((4-chloro-1-methyl-1H-pyrazol-5-yl)methyl)isoindolin-1-one] yielded an EC50 [1, 4] of less than 500 nM, a maximal fold induction [1, 4] greater than 1.5 and an EC50 [2, 5] of less than 500 nM. For the same compound, the “Enzymatic Emax” value [2] was “A (A>3)”.

`Cn1ncc(Cl)c1CC1c2cc(F)ccc2C(=O)N1Cc1ccc2[nH]nnc2c1` (stereo not drawn) [Compound 344, 2-((1H-benzo[d][1,2,3]triazol-5-yl)methyl)-3-((4-chloro-1-methyl-1H-pyrazol-5-yl)methyl)-5-fluoroisoindolin-1-one] showed an EC50 [1, 4] of less than 500 nM, a maximal fold induction [1, 4] greater than 1.5 and an EC50 [2, 5] of 500 to 5000 nM. For the same compound, the “Enzymatic Emax” value [2] was “A (A>3)”.

Work on `O=C1c2ccccc2C(Cc2ncccc2Br)N1CCCc1c[nH]nn1` (stereo not drawn) [Compound 347, 2-(3-(1H-1,2,3-triazol-4-yl)propyl)-3-((3-bromopyridin-2-yl)methyl)isoindolin-1-one] yielded an EC50 [1, 4] of 500 to 5000 nM, a maximal fold induction [1, 4] greater than 1.5 and an EC50 [2, 5] of 500 to 5000 nM. For the same compound, the “Enzymatic Emax” value [2] was “A (A>3)”.

`Cc1c(CN2C(=O)c3ccccc3C2Cc2ncccc2Br)ccc2[nH]c(=O)oc12` (stereo not drawn) [Compound 349, 6-((1-((3-bromopyridin-2-yl)methyl)-3-oxoisoindolin-2-yl)methyl)-7-methylbenzo[d]oxazol-2(3H)-one] was tested, and the EC50 [1, 4] was 5000 to 50000 nM, the maximal fold induction [1, 4] was greater than 1.5 and the EC50 [2, 5] was 500 to 5000 nM. For the same compound, the “Enzymatic Emax” value [2] was “A (A>3)”.
